# Laboratory results taken from patent US20250275938A1, “COMPOSITIONS AND METHODS FOR TREATMENT OF CANCER” (SCIROSBIO (FZC), priority 2022, published 2025).
# How the values were obtained:
# C6 rat glioma cell line = experiment: MTT cell viability assay, C6; type: cell-based; conditions: for cell viability / anti-proliferative effect (MTT), in words / IC50: C6, 24 hours; for IC50: Rattus norvegicus, individual drug, mean ± SD, no unit in table, test concentrations given in μM, read-out: Inhibitory Concentration at 50% (IC50) C6 Cells
# Experimental: Cell lines and culture conditions. A human glioma cell line, U87MG, a rat glioma cell line, C6, and normal HEK293T (Human Embryonic Kidney) cells were obtained from National Centre for Cell Science (NCCS), Pune, India. The cells were sub-cultured in Dulbecco's Modified Eagle's Medium (DMEM) supplemented with 10% FBS at 5% CO2 and 37° C. At 85% confluence, the cells were harvested using 0.25% trypsin and seeded in 25 cm^2 flasks, 96 well, and 6-well plates, according to the experiment being performed. The cells were allowed to attach 70% to the surface prior to treatment. A stock solution of all the drugs (10 mg/ml) was made in a vehicle and diluted to the required concentrations. Suspensions were aspirated 10 times before treatment. Cells treated with vehicle control were used as a control.
# Cell viability assay. U87MG and C6 cells (5×10^3 cells/ml) were seeded in 96-well plates and exposed to different individual-drug treated groups with varying concentrations (0, 10, 40, 80, 120, and 160 μM) for a period of 24 hours, whereas HEK293T cells (5×10^3 cells/ml) were seeded at the inhibitory concentration (IC) at 50% of drugs, either alone or in combination. The individual-treated groups include Group I: untreated control glioma cells; Group II: TMZ-treated glioma cells; Group III: MET-treated glioma cells; and Group IV: EGCG-treated glioma cells.
# After a 24 hour treatment period, the cells were allowed to react with MTT for 4 hours in dark at 37° C. At the end of the incubation period, the dark purple formazan crystals formed were solubilized with DMSO and the absorbance was measured spectrophotometrically at 595 nm (Molecular Devices Spectra-Max M5, USA). The experiments were repeated at least three times. To determine the cell viability, the percentage of viability was calculated as follows:
# % viability=[(Optical density {OD} of treated cells−OD of Blank)/(OD of control−OD of blank)]×100.
# Calculation of IC50 value. The IC50 of a drug was determined using y=m(x)+c equation (where: ‘y’ & ‘x’ are the respective coordinates of y & x-axis, ‘m’ is the slope and ‘c’ is the constant) derived from the trendlines of each scattered plots MMT assay. […] The IC50 and IC25 were also calculated for the dual combinations. The IC50 for the triple combination was calculated by keeping the IC25 of the dual-combination constant, and the third drug was used in varying concentrations (0, 10, 40, 80, 120, and 160 μM) (Table 1).
# Combination index of drugs. According to the Chou-Talalay method, The statistical Combination Index (CI) of the drugs was performed according to the Chou-Talay method (Ma et al, Stem Cell Reports, 2017 9(6):1948-1960) to determine whether various drug combinations were synergistic, additive, or antagonistic, as shown in Table 1. This was performed for Groups V-IX using the following formula:
# Combination index (CI) of Drugs 1 & 2=(IC50 of drug-1 in combination/IC50 of drug-1 individually)+(IC50 of drug-2 in combination/IC50 of drug-2 individually).
# U87MG human glioma cells = experiment: AO/EtBr dual staining for apoptosis, U87MG; type: cell-based; conditions: respective IC50 concentrations
# Description: AO/EtBr are fluorescent nuclear stains, which distinguish between live and dead cells based on their membrane integrity. AO intercalates in the DNA of live cells imparting green shade to the nucleus as an indica-tor of viability. In the case of the dead cell, EtBr intercalates along with AO, resulting in an orange appearance, with an increased orange appearance corresponding to a concomitant increase in the number of dead cells and vice versa.
# After the treatment period, monolayer cells were stained with AO/EtBr stain (1 mg/ml) and were visualized immediately under a fluorescence microscope (Axiovert, Carl Zeiss) at 20× magnification.
# [1] = system: human pancreatic cancer (PANC1) cells; experiment: MTT cell viability assay, PANC1; type: cell-based; conditions: 24 hours
# Experimental: Cell lines and culture conditions: A human pancreatic cancer cell line PANC1 and human colon cancer cell line HCT116 were obtained from National Centre for Cell Science (NCCS), Pune, India. The PANC1 cells were sub-cultured in Dulbecco's Modified Eagle's Medium (DMEM) supplemented with 10% FBS at 5% C02 and 37° C. The HCT116 cells were sub-cultured in McCoy's 5A media supplemented with 10% FBS at 5% CO2 and 37° C. […] The cells were allowed to attach 70% to the surface prior to treatment. […] Suspensions were aspirated 10 times before treatment. Cells treated with vehicle control were used as a control. Cell viability assay: PANC1 and HCT116 cells ([…] cells/ml) were seeded in 96-well plates and exposed to different individual-drug treated groups with varying concentrations (0, 20, 40, 60, 80, 100, 120, 140, 160, 180 and 200 μM) for a period of 24 hours. The individual-treated groups include Group I: 5 Fluorouracil (5FU)-treated PANC1 and HCT116 cells; Group II: MET-treated PANC1 and HCT116 cells; Group III: EGCG-treated PANC1 and HCT116 cells and Group IV: 5FU+[…] PANC1 and HCT116 cells.
# C6 glioma cells = experiment: Quantitative RT-PCR gene expression, C6; type: cell-based, rat
# Experimental: Quantitative RT-PCR analysis of antioxidant enzymes (SOD and CAT), oxidative stress marker (Nrf-2), and apoptosis markers (BCL2 and Caspase-9). Total RNA from all experimental groups was isolated using RNA Express reagent (HiMedia, India) and the respective cDNAs were synthesized using a Hi-c-DNA Synthesis Kit (HiMedia, India). Quantitative RT-PCR was carried out using a CFX 96 thermocycler (Bio-Rad, Hercules, CA) and TB Green Premix Ex Taq 1 (Takara Bio, Otsu, Japan) to detect mRNA. Independent experiments were conducted in triplicate. The cycle threshold (Ct), representing a positive PCR result, is defined as the cycle number at which a sample's fluorescence intensity crossed the threshold automatically determined by the CFX 96.
# The relative changes in gene expression were calculated with the 2^−ΔΔCt method, wherein ΔΔCt=(Cttarget gene−Ctβ-actin) sample−([…]) calibrator.
# The qPCR analyses were performed to measure the expression levels of genes associated with anti-Warburg effect. The total RNA was extracted from the cell lysates and brain tissues of all the experimental groups using TRIZOL reagent (Takara Bio, Shiga, Japan). Quantitative RT-PCR was carried out using a CFX96 Real Time PCR Detection System (Bio-Rad, California, USA) and TB Green Premix Ex Taq I (Takara Bio, Shiga, Japan) to detect messenger ribonucleic acid (mRNA).
# Independent experiments were conducted in triplicate. The relative changes in gene expression were calculated with the 2^−ΔΔCt method, where ΔΔCt=Sample (Cttarget gene−Ctβ-actin)−Calibrator (Cttarget gene−Ctβ-actin).
Structure (SMILES),"cell viability / anti-proliferative effect (MTT), in words (C6 rat glioma cell line)",IC50 (C6 rat glioma cell line),IC25 C6 (C6 rat glioma cell line; as used in the triple combination for CI),apoptotic cell death (AO/EtBr) (U87MG human glioma cells; hydrochloride),"apoptotic cell death (AO/EtBr) (U87MG human glioma cells; listed as M, hydrochloride)","cell viability (MTT), in words [1]",mRNA expression levels of BCL2 (C6 glioma cells),mRNA expression levels of Caspase-9 (C6 glioma cells),mRNA transcript levels of Nrf-2 (C6 glioma cells),"cell viability / anti-proliferative effect (MTT), in words (C6 rat glioma cell line; listed as ECGC)",apoptotic cell death (AO/EtBr) (U87MG human glioma cells),apoptotic cell death (AO/EtBr) (U87MG human glioma cells; listed as E),mRNA transcripts of the antioxidant genes (SOD and CAT) (C6 glioma cells)
"CN(C)C(=N)N=C(N)N.Cl [MET, 3-(diaminomethylidene)-1,1-dimethylguanidine; hydrochloride]",reduction in cell viability in a dose-dependent fashion,77 ± 1.42 µM,38.40 µM,did not produce any significant apoptotic activity,no apoptosis but loss of cell membrane integrity,reduction in cell viability in a dose-dependent fashion,not found to be statistically significant,not found to be statistically significant,did not have any significant effect,,,,
"O=C(O[C@@H]1Cc2c(O)cc(O)cc2O[C@@H]1c1cc(O)c(O)c(O)c1)c1cc(O)c(O)c(O)c1 [EGCG, [(2R,3R)-5,7-dihydroxy-2-(3,4,5-trihydroxyphenyl)-3,4-dihydro-2H-chromen-3-yl] 3,4,5-trihydroxybenzoate]",reduction in cell viability in a dose-dependent fashion,96 ± 1.76 µM,,,,reduction in cell viability in a dose-dependent fashion,not found to be statistically significant,not found to be statistically significant,did not have any significant effect,did not result in significant inhibitory effects,did not produce any significant apoptotic activity,no apoptosis,significant up-regulation
